Results reported in US6495576B2, “Aminal diones as potassium channel openers” (Abbott Laboratories, priority 2001, dated 2002).
Read-outs that look alike come from different tables or passages of the source.

Tests used:
[1] = test system: primary cultured guinea-pig urinary bladder (GPB) cells; test: Membrane hyperpolarization (MHP) assay, DiBAC(4)3 fluorescence on FLIPR; format: cell-based; details: for Maximal Response (%P1075): maximal steady-state hyperpolarization, normalized to response with 10 μM P1075 (100%); for EC50: Cavia porcellus, concentration eliciting 50% of the maximal response of the test sample
Description: Compounds were evaluated for potassium channel opening activity using primary cultured guinea-pig urinary bladder (GPB) cells.
For the preparation of urinary bladder smooth muscle cells, urinary bladders were removed from male guinea-pigs (Hartley, Charles River, Wilmington, Mass.) weighing 300-400 g and placed in ice-cold Ca^2+-free Krebs solution (composition, mM: KCl, 2.7, KH2PO4, 1.5; NaCl, 75, Na2HPO4, 9.6; Na2HPO4. 7H2O, 8; MgSO4, 2; glucose, 5; HEPES, 10; pH 7.4). Cells were isolated by enzymatic dissociation as previously described with minor modifications (Klockner and Isenberg, Pflugers Arch. (1985), 405, 329-339), hereby incorporated by reference. The bladder was cut into small sections and incubated in 5 mL of the Kreb's solution containing 1 mg/mL collagenase (Sigma, St. Louis, Mo.) and 0.2 mg/mL pronase (Calbiochem, La Jolla, Calif.) with continuous stirring in a cell incubator for 30 minutes. The mixture was then centrifuged at 1300×g for 5 minutes, and the pellet resuspended in Dulbecco's PBS (GIBCO, Gaithersburg, Md.) and recentrifuged to remove residual enzyme. The cell pellet was resuspended in 5 mL growth media (composition: Dulbecco's modified Eagle's medium supplemented with 10% fetal bovine serum, 100 units/mL penicillin, 100 units/mL streptomycin and […] amphotericin B) and further dissociated by pipetting the suspension through a flame-polished Pasteur pipette and passing it through a polypropylene mesh membrane (Spectrum, Houston, Tex.). The cell density was adjusted to 100,000 cells/mL by resuspension in growth media Cells were plated in clear-bottomed black 96-well plates (Packard) for membrane potential studies at a density of 20,000 cells/well and maintained in a cell incubator with 90% air: 10% CO2 until confluent. Cells were confirmed to be of smooth muscle type by cytoskeletal staining using a monoclonal mouse anti human-α-smooth muscle actin (Biomeda, Foster City, Calif.).
Functional activity at potassium channels was measured by evaluating changes in membrane potential using the bis-oxonol dye DiBAC(4)3 (Molecular Probes) in a 96-well cell-based kinetic assay system, Fluorescent Imaging Plate Reader (FLIPR) (K. S. Schroeder et al., J. Biomed. Screen., v. 1 pp. 75-81 (1996)), hereby incorporated by reference. DiBAC(4)3 is an anionic potentiometric probe which partitions between cells and extracellular solution in a membrane potential-dependent manner. With increasing membrane potential (for example, K^+ depolarization), the probe further partitions into the cell; this is measured as an increase in fluorescence due to dye interaction with intracellular lipids and proteins. Conversely, decreasing membrane potential (hyperpolarization by potassium channel openers) evokes a decrease in fluorescence.
Confluent guinea-pig urinary bladder cells cultured in black clear-bottomed 96-well plates were rinsed twice with […] assay buffer (composition, mM: HEPES, 20; NaCl, 120; KCl, 2; CaCl2, 2, MgCl2, 1, glucose, 5; pH 7.4 at 25° C.) containing 5 μM DiBAC(4)3 and incubated with […] of the buffer in a cell incubator for 30 minutes at 37° C. to ensure dye distribution across the membrane. After recording the baseline fluorescence for 5 minutes, the reference or test compounds, prepared at 10 times the concentration in the assay buffer, were added directly to the wells. Changes in fluorescence were monitored for an additional 25 minutes. Hyperpolarization responses were corrected for any background noise and were normalized to the response observed with 10 μM of the reference compound P1075 (assigned as 100%), a potent opener of smooth muscle KATP channels (Quast et al., Mol. Phanmacol., v. 43 pp. 474-481 (1993)).
Routinely, five concentrations of P1075 or test compounds (log or half-log dilutions) were evaluated and the maximal steady-state hyperpolarization values (expressed as % relative to P1075) plotted as a function of concentration. […]

[2] = test system: Landrace pig bladder strips; test: Functional potassium channel opening activity in isolated, field-stimulated bladder strips; details: for Index: ED50 for P1075 divided by ED50 for test agonist in a given tissue, averaged; for EC50: amount causing 50% of the agent's maximal response, field stimulation 0.05 Hz, 0.5 ms, 20 volts, read-out: ED50 (the source's name)
Description: Compound were evaluated for functional potassium channel opening activity using tissue strips obtained from Landrace pig bladders.
Landrace pig bladders were obtained from female Landrace pigs of 9-30 kg. Landrace pig were euthanized with an intraperitoneal injection of pentobarbital solution, Somlethal ®, J. A. Webster Inc. Sterling Mass. The entire bladder was removed and immediately placed into Krebs Ringer bicarbonate solution (composition, mM: NaCl, 120; NaHCO3, 20; dextrose, 11; KCl, 4.7; CaCl2, 2.5; MgSO4, 1.5; KH2PO4, 1.2; K2EDTA, 0.01, equilibrated with 5% CO2/95% O2 pH 7.4 at 37° C.). Propranolol (0.004 mM) was included in all of the assays to block β-adrenoceptors. The trigonal and dome portions were discarded. Strips 3-5 mm wide and 20 mm long were prepared from the remaining tissue cut in a circular fashion. The mucosal layer was removed. One end was fixed to a stationary glass rod and the other to a Grass FT03 transducer at a basal preload of 1.0 gram. Two parallel platinum electrodes were included in the stationary glass rod to provide field stimulation of 0.05 Hz, 0.5 milli-seconds at 20 volts. This low frequency stimulation produced a stable twitch response of 100-500 centigrams. Tissues were allowed to equilibrate for at least 60 minutes and primed with 80 mM KCl. A control concentration response curve (cumulative) was generated for each tissue using the potassium channel opener P1075 as the control agonist. […] After a 60 minute rinsing period, a concentration response curve (cumulative) was generated for the test agonist in the same fashion as that used for control agonist P1075. The maximal efficacy of each compound (expressed as % relative to P1075) is reported. The amount of agent necessary to cause 50% of the agent's maximal response (ED50) was calculated using “ALLFIT” (DeLean et al., Am. J. Physiol., 235, E97 (1980)), hereby incorporated by reference. Agonist potencies were also expressed as an index relative to P1075. The index was calculated by dividing the ED50 for P1075 by the ED50 for the test agonist in a given tissue. Each tissue was used for only one test agonist, and the indices obtained from each tissue were averaged to provide an average index of potency.

[3] = Sus scrofa, maximal efficacy on stimulated twitch, relative to P1075

SMILES	Maximal Response (%P1075) [1]	Index [2]	also measured
C=CCC(C)(C)C(NC(=O)c1ccc(Cl)cc1)Nc1c(Nc2cccnc2)c(=O)c1=O (centres unmarked) [Example 17, 4-Chloro-N-(-1-{[3,4-dioxo-2-(3-pyridinylamino)-1-cyclobuten-1-yl]amino}-2,2-dimethyl-4-pentenyl)benzamide]	96 %P1075	0.028	–
COc1ncccc1Nc1c(NC(NC(=O)c2cccc(C)c2)C(C)(C)C)c(=O)c1=O (centres unmarked) [Example 81, N-[1-({2-[(2-Methoxypyridin-3-yl)amino]3,4-dioxo-1-cyclobuten-1-yl}amino)-2,2-dimethylpropyl]-3-methylbenzamide]	–	–	melting point: 224 to 226 °C
CC(C)(C)C(NC(=O)c1cccc(Cl)c1)Nc1c(Nc2cccnc2Cl)c(=O)c1=O (centres unmarked) [Example 95, 3-Chloro-N-[1-({2-[(2-chloropyridin-3-yl)amino]-3,4-dioxo-1-cyclobuten-1-yl}amino)-2,2-dimethylpropyl]benzamide]	–	–	melting point: 213 to 214 °C
CC(C)(C)C(NC(=O)c1cc(Cl)cc(Cl)c1)Nc1c(Nc2cncc(C(F)(F)F)c2)c(=O)c1=O (centres unmarked) [Example 53, 3,5-Dichloro-N-{1-[(3,4-dioxo-2-{[5-(trifluoromethyl)pyridin-3-yl]amino}-1-cyclobuten-1-yl)amino]-2,2-dimethylpropyl}benzamide]	–	–	melting point: 233 to 234 °C
COc1ncccc1Nc1c(NC(NC(=O)c2cccc(C)c2)C(C)(C)Cc2ccccc2)c(=O)c1=O (centres unmarked) [Example 83, N-[1-({2-[(2-Methoxypyridin-3-yl)amino]-3,4-dioxo-1-cyclobuten-1-yl}amino)-2,2-dimethyl-3-phenylpropyl]-3-methylbenzamide]	–	–	melting point: 233 to 235 °C
CC(C)(C)C(NC(=O)c1cc(F)cc(F)c1)Nc1c(Nc2cccnc2Cl)c(=O)c1=O (single isomer, unassigned; (+)) [Example 110, (+) N-(1-{[3,4-Dioxo-2-(2-chloro3-pyridinylamino)-1-cyclobuten-1-yl]amino}-2,2-dimethylpropyl)-3,5-difluorobenzamide]	–	–	melting point: 215 to 216 °C
Cc1ccc(C(=O)NC(Nc2c(Nc3cccnc3)c(=O)c2=O)C(C)(C)C)cc1 (centres unmarked) [Example 1, N-(1-{[3,4-Dioxo-2-(3-pyridinylamino)-1-cyclobuten-1-yl]amino}-2,2-dimethylpropyl)-4-methylbenzamide]	91 %P1075	0.008	–
Cc1cccc(C(=O)NC(Nc2c(Nc3cccnc3)c(=O)c2=O)C(C)(C)Cc2ccccc2)c1 (centres unmarked) [Example 60, N-(1-{[3,4-Dioxo-2-(3-pyridinylamino)-1-cyclobuten-1-yl]amino}-2,2-dimethyl-3-phenylpropyl)-3-methylbenzamide]	83 %P1075	0.87	EC50 [1]: 0.093 µM; EC50 ([2]; Sus scrofa): 0.68 µM; Emax [2, 3]: 88%
CC(C)(Cc1ccccc1)C(NC(=O)c1ccc(Cl)cc1)Nc1c(Nc2cccnc2)c(=O)c1=O (centres unmarked) [Example 18, 4-Chloro-N-(-1-{[3,4-dioxo-2-(3-pyridinylamino)-1-cyclobuten-1-yl]amino}-2,2-dimethyl-3-phenylpropyl)benzamide]	97 %P1075	0.055	EC50 [1]: 0.51 µM; EC50 ([2]; Sus scrofa): 17 µM; Emax [2, 3]: 62%
CC(C)(C)C(NC(=O)c1cc(F)cc(F)c1)Nc1c(Nc2cccnc2)c(=O)c1=O (single isomer, unassigned; (+)) [Example 49, (+)N-(1-{[3.4-Dioxo-2-(3-pyridinylamino)-1-cyclobuten-1-yl]amino}-2,2-dimethylpropyl)-3,5-difluorobenzamide]	–	0.071	EC50 [2]: 1.2 µM; Efficacy (%P1075) ([2]; maximal efficacy on stimulated twitch, relative to P1075): 100 %P1075
C=CCOCC(CC)(COCC=C)C(NC(=O)c1ccc(Cl)cc1)Nc1c(Nc2cccnc2)c(=O)c1=O (centres unmarked) [Example 20, N-(2,2-Bis[(allyloxy)methyl]-1-{[3,4-dioxo-2-(3-pyridinylamino)-1-cyclobuten-1-yl]amino}butyl)-4-chlorobenzamide]	98 %P1075	–	–
CC(C)(C)C(NC(=O)c1ccc(Cl)cc1)Nc1c(Nc2cccnc2)c(=O)c1=O (centres unmarked) [Example 2, 4-Chloro-N-(1-{[3,4-dioxo-2-(3-pyridinylamino)-1-cyclobuten-1-yl]amino}-2,2-dimethylpropyl)benzamide]	108 %P1075	0.047	–
CCC(CC)(CCC#N)C(NC(=O)c1ccc(Cl)cc1)Nc1c(Nc2cccnc2)c(=O)c1=O (centres unmarked) [Example 19, 4-Chloro-N-(4-cyano-1-{[3,4-dioxo-2-(3-pyridinylamino)-1-cyclobuten-1-yl]amino}-2,2-diethylbutyl)benzamide]	<20 %P1075	–	–
COc1cc(OC)cc(C(=O)NC(Nc2c(Nc3cccnc3)c(=O)c2=O)C(C)(C)C)c1 (centres unmarked) [Example 13, N-(1-{[3,4-dioxo-2-(3-pyridinylamino)-1-cyclobuten-1-yl]amino}-2,2-dimethylpropyl)-3,5-dimethoxybenzamide]	–	0.57	–
CC(C)(C)C(NC(=O)c1cccc(Cl)c1)Nc1c(Nc2cccnc2)c(=O)c1=O (centres unmarked) [Example 5, 3-chloro-N-(1-{[3,4-Dioxo-2-(3-pyridinylamino)-1-cyclobuten-1-yl]amino}-2,2-dimethylpropyl)benzamide]	–	0.059	–
CC(Cl)(Cl)C(NC(=O)c1cc(F)cc(F)c1)Nc1c(Nc2cccnc2)c(=O)c1=O (centres unmarked) [Example 51, N-(2,2-Dichloro-1-{[3,4dioxo-2-(3-pyridinylamino)-1-cyclobuten-1-yl]amino}propyl)-3,5-difluorobenzamide]	–	0.080	EC50 ([2]; Sus scrofa): 1.4 µM; Emax [2, 3]: 96%
CC(C)(C)C(NC(=O)c1cccc(I)c1)Nc1c(Nc2cccnc2)c(=O)c1=O (centres unmarked) [Example 8, N-(1-{[3,4-Dioxo-2-(3-pyridinylamino)-1-cyclobuten-1-yl]amino}-2,2-dimethylpropyl)-3-iodobenzamide]	–	0.047	–
